Key:
[1] = tested on: SNL-induced mechanical hyperalgesia; assay: SNL-induced mechanical hyperalgesia model in rats (paw pressure test, PWT); type: in vivo, rat; details: dosed orally at 100 mg/kg (vehicle: 0.5% methyl cellulose) one hour before testing
Method: Each experiment uses rats weighing between 200-260 g at the start of the experiment. The rats are group-housed and have free access to food and water at all times, except prior to oral administration of a test compound when food is removed for 16 h before dosing. A control group acts as a comparison to rats treated with a Compound of the Disclosure. The control group is administered the carrier as used for the test compound. The volume of carrier administered to the control group is the same as the volume of carrier and test compound administered to the test group. In the Chung model, the spinal nerve ligation (SNL) model of neuropathic pain is used to produce mechanical hyperalgesia, thermal hyperalgesia, and tactile allodynia in rats. Surgery is performed under isoflurane/O2 inhalation anesthesia. Following induction of anesthesia a 3 cm incision is made and the left paraspinal muscles are separated from the spinous process at the L4-S2 levels. The L6 transverse process is carefully removed with a pair of small rongeurs to identify visually the L4-L6 spinal nerves. […] The animals are assessed for response to noxious mechanical stimuli by determining PWT, as described below, prior to surgery (baseline), then immediately prior to and 1, 3, and 5 hours after being administered a Compound of the Disclosure or vehicle, for the left rear paw of the animal. The animals can also be assessed for response to noxious thermal stimuli or for tactile allodynia, as described below. […] Sensitivity to noxious mechanical stimuli was measured in animals using the paw pressure test to assess mechanical hyperalgesia. In rats, hind paw withdrawal thresholds (“PWT”), measured in grams, in response to a noxious mechanical stimulus were determined using an analgesymeter (Model 7200, commercially available from Ugo Basile of Italy), as described in Stein (Biochemistry & Behavior 31: 451-455 (1988)). […] PWT was determined once for each rat at each time point. PWT can be measured only in the injured paw, or in both the injured and non-injured paw. […]

human Nav1.7 = human Nav1.7 (Homo sapiens, UniProt Q15858); assay: FLIPR membrane potential dye assay (alternative fluorescence assay) in Nav1.7 expressing cells; type: cell-based; details: Table 7
Chain of human Nav1.7 (Q15858 1-1977 isoform Q15858-3): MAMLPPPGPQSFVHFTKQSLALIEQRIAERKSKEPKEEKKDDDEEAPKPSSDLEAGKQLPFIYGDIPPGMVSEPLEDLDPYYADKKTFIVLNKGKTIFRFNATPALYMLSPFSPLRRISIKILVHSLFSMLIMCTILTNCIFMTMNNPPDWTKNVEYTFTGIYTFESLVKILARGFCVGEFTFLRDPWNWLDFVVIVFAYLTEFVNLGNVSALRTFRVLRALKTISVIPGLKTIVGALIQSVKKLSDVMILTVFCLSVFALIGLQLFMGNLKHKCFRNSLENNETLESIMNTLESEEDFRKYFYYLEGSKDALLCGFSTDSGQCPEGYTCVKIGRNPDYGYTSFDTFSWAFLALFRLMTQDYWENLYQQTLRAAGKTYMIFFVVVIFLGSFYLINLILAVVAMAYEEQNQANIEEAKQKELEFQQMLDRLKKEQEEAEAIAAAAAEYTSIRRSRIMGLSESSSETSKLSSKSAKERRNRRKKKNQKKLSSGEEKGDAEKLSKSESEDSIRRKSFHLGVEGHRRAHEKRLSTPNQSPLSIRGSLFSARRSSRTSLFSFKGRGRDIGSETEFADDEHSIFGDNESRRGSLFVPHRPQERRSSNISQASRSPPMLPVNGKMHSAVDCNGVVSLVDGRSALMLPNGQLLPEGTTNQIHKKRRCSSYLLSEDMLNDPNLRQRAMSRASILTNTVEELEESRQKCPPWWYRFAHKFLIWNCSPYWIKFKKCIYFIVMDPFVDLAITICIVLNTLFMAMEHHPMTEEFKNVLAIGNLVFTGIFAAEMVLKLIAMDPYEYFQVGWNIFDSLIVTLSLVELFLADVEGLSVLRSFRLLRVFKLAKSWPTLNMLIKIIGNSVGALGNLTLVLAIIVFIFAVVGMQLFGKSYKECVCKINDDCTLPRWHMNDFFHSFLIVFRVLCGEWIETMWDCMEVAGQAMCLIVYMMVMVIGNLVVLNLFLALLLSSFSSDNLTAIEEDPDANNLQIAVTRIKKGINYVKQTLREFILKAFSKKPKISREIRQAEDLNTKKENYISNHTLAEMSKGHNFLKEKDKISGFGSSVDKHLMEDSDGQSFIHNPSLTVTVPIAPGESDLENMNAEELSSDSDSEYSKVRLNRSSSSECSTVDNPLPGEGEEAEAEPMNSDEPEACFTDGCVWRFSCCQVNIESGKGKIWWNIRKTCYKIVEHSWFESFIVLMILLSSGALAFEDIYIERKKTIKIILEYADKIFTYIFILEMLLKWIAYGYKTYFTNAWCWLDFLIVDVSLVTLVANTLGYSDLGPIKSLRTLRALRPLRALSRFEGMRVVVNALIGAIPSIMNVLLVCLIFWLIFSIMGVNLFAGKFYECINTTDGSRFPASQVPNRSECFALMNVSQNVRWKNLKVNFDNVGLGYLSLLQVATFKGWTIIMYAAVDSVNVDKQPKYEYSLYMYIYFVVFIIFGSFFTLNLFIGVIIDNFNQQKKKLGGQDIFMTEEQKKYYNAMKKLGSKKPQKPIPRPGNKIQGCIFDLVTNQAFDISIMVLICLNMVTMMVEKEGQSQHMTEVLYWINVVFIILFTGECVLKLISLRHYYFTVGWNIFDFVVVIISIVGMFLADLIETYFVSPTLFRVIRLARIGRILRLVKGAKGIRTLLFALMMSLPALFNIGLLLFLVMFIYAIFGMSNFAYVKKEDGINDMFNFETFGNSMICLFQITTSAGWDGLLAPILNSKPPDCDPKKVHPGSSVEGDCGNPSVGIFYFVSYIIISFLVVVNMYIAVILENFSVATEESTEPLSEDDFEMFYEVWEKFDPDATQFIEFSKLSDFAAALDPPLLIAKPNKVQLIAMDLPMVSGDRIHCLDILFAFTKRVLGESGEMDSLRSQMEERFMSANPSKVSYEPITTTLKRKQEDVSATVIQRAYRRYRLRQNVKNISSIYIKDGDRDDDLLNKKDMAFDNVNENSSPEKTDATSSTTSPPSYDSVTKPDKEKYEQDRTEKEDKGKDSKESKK

hNav1.7 = hNav1.7 (Homo sapiens, UniProt Q15858); assay: Electrophysiology (EP) whole-cell patch clamp assay in hNav1.7 expressing HEK-293 cells; type: cell-based; details: Table 7; affinity for inactivated channels; read-out: Nav1.7 Activity (μM) EP assay Ki
Chain of hNav1.7 (Q15858 1-1977 isoform Q15858-3): as above
Method: The hNav1.7 expressing HEK-293 cells were plated on 35 mm culture dishes pre-coated with poly-D-lysine in standard DMEM culture media (Mediatech, Inc., Herndon, Va.) and incubated in a 5% CO2 incubator at 37° C. Cultured cells were used approximately 12-48 h after plating.
On the day of experimentation, the 35 mm dish was placed on the stage of an inverted microscope equipped with a perfusion system that continuously perfuses the culture dish with fresh recording media. A gravity driven superfusion system was used to apply test solutions directly to the cell under evaluation. This system consists of an array of glass pipette glass connected to a motorized horizontal translator. The outlet of the shooter was positioned approximately 100 μm from the cell of interest.
Whole cell currents were recorded using the whole-cell patch clamp configuration using an Axopatch 200B amplifier (Axon Instruments, Foster City Calif.), 1322A A/D converter (Axon Instruments) and pClamp software (v. 8; Axon Instruments) and stored on a personal computer. Gigaseals were formed and the whole-cell configuration was established in voltage clamp mode, and membrane currents generated by hNav1.7 were recorded in gap-free mode. Borosilicate glass pipettes have resistance values between 1.5 and 2.0 MΩ when filled with pipette solution and series resistance (<5 MΩ) was compensated 75-80%. Signals were sampled at 50 kHz and low pass filtered at 3 kHz.
After establishing the whole-cell configuration in voltage clamp mode, two voltage protocols were run to establish: 1) the holding potential; and 2) the test potential for each cell.
To determine a membrane potential at which the majority of channels are in the resting state, a standard steady-state inactivation (SSIN) protocol was run using 100 ms prepulses×10 mV depolarizing steps. The holding potential for testing resting block (Vh1) was 20 mV more hyperpolarized than the first potential where inactivation is observed with the inactivation protocol.
From this holding potential a standard I-V protocol was run to determine the potential at which the maximal current (Imax) was elicited. This potential was the test potential (Vt).
The compound testing protocol was a series of 10 ms depolarizations from the Vh1 (determined from the SSIN) to the Vt (determined from the I-V protocol) repeated every 10-15 seconds. […] Washout of the compound was attempted by superfusing with control solution once steady-state block was observed. The fractional response was calculated as follows: FR=I(after drug)/I(control), where I is the peak current amplitude and was used for estimating resting block dissociation constant, Kr: Kr=[drug]*{FR/(1−FR)}, where [drug] is the concentration of a drug.
To assess the block of inactivated channels the holding potential was depolarized such that 20-50% of the current amplitude was reduced when pulsed to the same Vt as above. The magnitude of this depolarization depends upon the initial current amplitude and the rate of current loss due to slow inactivation. This was the second holding potential (Vh2). The current reduction was recorded to determine the fraction of available channels at this potential (h). h=I@Vh2/Imax.
At this membrane voltage a proportion of channels are in the inactivated state, and thus inhibition by a blocker includes interaction with both resting and inactivated channels.
To determine the potency of the test compound on inactivated channels, a series of currents were elicited by 10 ms voltage steps from Vh2 to Vt every 10-15 seconds. After establishing a stable baseline, the low concentration of the compound was applied. Multiple cumulative concentrations may have to be applied to identify a concentration that will block between 40-60% of the current. Washout was attempted to re-establish baseline. Fractional responses were measured with respect to a projected baseline to determine Kapp. Kapp=[drug]*{FR/(1−FR)}, where [drug] is the concentration of a drug. […]

Nav1.3 = Nav1.3 (Homo sapiens, UniProt Q9NY46); details: read-out: TTX IC50; cited from earlier work
Nav1.8 = Nav1.8 (Homo sapiens, UniProt Q9Y5Y9); details: read-out: TTX IC50; cited from earlier work
Chain of Nav1.8 (Q9Y5Y9 whole entry, looked up): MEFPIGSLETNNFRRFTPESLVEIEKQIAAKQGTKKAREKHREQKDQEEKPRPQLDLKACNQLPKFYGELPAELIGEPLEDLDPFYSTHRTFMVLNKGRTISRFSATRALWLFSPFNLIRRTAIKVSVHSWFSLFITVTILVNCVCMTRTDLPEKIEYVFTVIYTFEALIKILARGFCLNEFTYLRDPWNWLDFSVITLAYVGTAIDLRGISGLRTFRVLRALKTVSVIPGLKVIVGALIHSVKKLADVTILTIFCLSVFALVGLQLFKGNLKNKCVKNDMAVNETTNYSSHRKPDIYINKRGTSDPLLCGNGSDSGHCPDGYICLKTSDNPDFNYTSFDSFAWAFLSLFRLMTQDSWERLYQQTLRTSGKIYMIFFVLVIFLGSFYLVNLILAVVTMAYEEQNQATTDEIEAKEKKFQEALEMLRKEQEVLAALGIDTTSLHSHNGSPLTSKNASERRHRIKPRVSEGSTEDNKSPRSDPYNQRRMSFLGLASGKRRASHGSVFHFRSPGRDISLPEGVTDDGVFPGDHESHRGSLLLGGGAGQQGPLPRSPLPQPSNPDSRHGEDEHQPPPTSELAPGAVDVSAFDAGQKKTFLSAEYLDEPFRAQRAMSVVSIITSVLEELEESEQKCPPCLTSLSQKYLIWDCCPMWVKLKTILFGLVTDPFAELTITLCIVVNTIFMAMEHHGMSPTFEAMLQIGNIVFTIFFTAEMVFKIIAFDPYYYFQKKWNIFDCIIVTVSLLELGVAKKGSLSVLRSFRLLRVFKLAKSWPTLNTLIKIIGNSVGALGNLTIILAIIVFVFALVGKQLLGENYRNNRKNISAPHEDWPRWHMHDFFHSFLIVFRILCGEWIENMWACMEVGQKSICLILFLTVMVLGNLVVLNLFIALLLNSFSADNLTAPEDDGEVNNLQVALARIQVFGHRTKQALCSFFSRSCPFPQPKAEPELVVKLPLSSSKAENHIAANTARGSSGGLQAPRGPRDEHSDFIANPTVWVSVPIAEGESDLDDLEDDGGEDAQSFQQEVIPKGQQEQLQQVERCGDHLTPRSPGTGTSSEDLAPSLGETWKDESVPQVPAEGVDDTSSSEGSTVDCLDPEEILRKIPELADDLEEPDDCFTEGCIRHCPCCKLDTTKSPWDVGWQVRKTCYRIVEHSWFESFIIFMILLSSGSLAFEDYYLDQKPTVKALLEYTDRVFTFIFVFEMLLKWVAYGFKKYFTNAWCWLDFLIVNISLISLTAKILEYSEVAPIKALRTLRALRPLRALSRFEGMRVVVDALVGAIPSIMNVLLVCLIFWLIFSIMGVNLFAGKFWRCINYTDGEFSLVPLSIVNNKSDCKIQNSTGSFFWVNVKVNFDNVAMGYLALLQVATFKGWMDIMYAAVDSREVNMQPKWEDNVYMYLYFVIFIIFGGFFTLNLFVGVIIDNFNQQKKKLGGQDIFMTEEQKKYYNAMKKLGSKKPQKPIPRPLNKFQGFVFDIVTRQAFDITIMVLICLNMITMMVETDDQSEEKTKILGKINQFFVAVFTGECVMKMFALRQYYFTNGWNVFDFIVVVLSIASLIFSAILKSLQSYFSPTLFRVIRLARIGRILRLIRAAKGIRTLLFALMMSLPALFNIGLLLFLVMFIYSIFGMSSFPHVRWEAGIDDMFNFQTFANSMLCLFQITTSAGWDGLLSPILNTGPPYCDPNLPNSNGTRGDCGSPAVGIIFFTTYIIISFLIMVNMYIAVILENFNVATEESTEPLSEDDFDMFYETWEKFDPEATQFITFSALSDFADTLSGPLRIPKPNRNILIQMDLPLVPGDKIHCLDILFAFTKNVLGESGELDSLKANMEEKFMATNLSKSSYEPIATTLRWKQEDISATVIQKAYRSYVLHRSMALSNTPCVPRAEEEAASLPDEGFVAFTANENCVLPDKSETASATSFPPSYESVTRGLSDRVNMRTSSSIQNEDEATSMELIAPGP

Row | SMILES | SNL-induced mechanical hyperalgesia in rats [1] | IC50 (human Nav1.7) [µM] | Ki (hNav1.7) [µM] | also measured
1 | C[C@H](Nc1cc(C(N)=O)nc(-c2ccc(Oc3ccc(OC(F)(F)F)cc3)cc2)n1)C(N)=O [Cpd No. 84, (S)-6-((1-amino-1-oxopropan-2-yl)amino)-2-(4-(4-(trifluoromethoxy)phenoxy)phenyl)pyrimidine-4-carboxamide] | reduced SNL-induced mechanical hyperalgesia | – | – | –
2 | NC(=O)c1cc(O[C@H]2CCNC2=O)nc(N2[C@@H]3CC[C@H]2C[C@@H](Oc2ccc(C(F)(F)F)cn2)C3)n1 [Cpd No. 224, 6-(((S)-2-oxopyrrolidin-3-yl)oxy)-2-((1R,3S,5S)-3-((5-(trifluoromethyl)pyridin-2-yl)oxy)-8-azabicyclo[3.2.1]octan-8-yl)pyrimidine-4-carboxamide] | – | 1.01 | 0.81 | –
3 | NC(=O)c1cc(O[C@H]2CCNC2=O)nc(-c2ccc(Oc3ccc(C(F)(F)F)cn3)cc2)n1 [Cpd No. 227, (S)-6-((2-oxopyrrolidin-3-yl)oxy)-2-(4-((5-(trifluoro-methyl)pyridin-2-yl)oxy)phenyl)pyrimidine-4-carboxamide] | – | 0.55 | 0.15 | –
4 | C[C@H](Nc1cc(C(N)=O)nc(-c2ccc(Cc3ccc(C(F)(F)F)cn3)cc2)n1)C(N)=O [Cpd No. 228, (S)-6-((1-amino-1-oxopropan-2-yl)amino)-2-(4-((5-(trifluoro-methyl)pyridin-2-yl)methyl)-phenyl)pyrimidine-4-carboxamide] | – | 1.1 | 1.1 | –
5 | NC(=O)c1cc(O[C@H]2CCNC2=O)nc(-c2ccc(Cc3ccc(C(F)(F)F)cn3)cc2)n1 [Cpd No. 229, (S)-6-((2-oxopyrrolidin-3-yl)oxy)-2-(4-((5-(trifluoromethyl)pyridin-2-yl)methyl)phenyl)pyrimidine-4-carboxamide] | – | 0.58 | 0.62 | –
6 | NC(=O)c1cc(O[C@H]2CCNC2=O)nc(-c2ccc(Oc3ccc(C(F)(F)F)cc3CN3CCCC3)cc2)n1 [Cpd No. 230, (S)-6-((2-oxopyrrolidin-3-yl)oxy)-2-(4-(2-(pyrrolidin-1-ylmethyl)-4-(trifluoromethyl)-phenoxy)phenyl)pyrimidine-4-carboxamide] | – | 1.72 | 0.74 | –
7 | NC(=O)c1cc(O[C@H]2CCNC2=O)nc(-c2ccc(Oc3ccc(C4CC4)cn3)cc2)n1 [Cpd No. 234, (S)-2-(4-((5-cyclopropylpyridin-2-yl)oxy)phenyl)-6-((2-oxopyrrolidin-3-yl)oxy)-pyrimidine-4-carboxamide] | – | 1.2 | 0.67 | –
8 | NC1=N[C@H](O)[C@H]2[C@H]3O[C@]4(O)O[C@@H]([C@@H](O)[C@@]2(N1)[C@@H]4O)[C@]3(O)CO [TTX, tetrodotoxin] | – | – | – | IC50 (Nav1.3): 15 nM; IC50 (Nav1.8): 50000 nM
9 | C[C@H](Oc1cc(C(N)=O)nc(-c2ccc(Oc3ccc(C(F)(F)F)cc3)cc2)n1)C(N)=O [compound 98] | reduced SNL-induced mechanical hyperalgesia | – | – | –
10 | NC(=O)c1cc(N[C@H]2CCNC2=O)nc(-c2ccc(Oc3ccc(C(F)(F)F)cn3)cc2)n1 [compound 99, (S)-6-((2-oxopyrrolidin-3-yl)amino)-2-(4-((5-(trifluoromethyl)pyridin-2-yl)oxy)phenyl)pyrimidine-4-carboxamide] | reduced SNL-induced mechanical hyperalgesia | – | – | –
